Some results are limits rather than exact numbers.

The subject of experiment [1] is HER2. Description: Receptor tyrosine kinase inhibition, HER2. Format: cell-based. The settings on record: for IC50: read-out: HER2 IC50. The method, boiled down: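 For ELISA, cells kept overnight in 0.5% serum were switched to serum-free medium, given compound for 2 h at 37 °C, then ligand-stimulated for 5–10 min. Lysates were captured on receptor-specific antibody plates and probed with anti-phosphotyrosine antibody. For western blots, cells in 1% FBS received ligand for 7 min at room temperature before anti-phosphotyrosine immunoblotting.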

For experiment [2], the system named is EGF receptor. Description: EGF receptor autophosphorylation, T98G glioblastoma cells. Format: cell-based, human. The settings on record: 200, 500; 50 ng/ml EGF. The procedure: Proteins were then separated by SDS-polyacrylamide gel electrophoresis (PAGE). Proteins containing phosphorylated tyrosine were identified by western blotting with an anti-phosphotyrosine antibody. The level of phosphorylated tyrosine was determined by quantitating the amount of bound anti-phosphotyrosine. Quantitation was carried out by peak area integration using a Molecular Dynamics Computing Densitometer (Model 300S), and Image Quant v3.0 software (Molecule Dynamics). Data were expressed as relative peak.intensity (phosphorylation of a receptor divided by the total amount of phosphorylated tyrosine).
T98G cells were plated in MCDB105 medium containing 2% FBS and incubated for 24 hours at 37° C. […] The cells were then treated with ligand for 10 minutes (20 ng/ml PDGF-BB or 50 ng/ml EGF). The cells were lysed and the level of phosphorylated receptor was quantitated as described in Example 1.

For experiment [3], the target named is PDGFR (Homo sapiens, UniProt P09619). In words: Receptor tyrosine kinase inhibition, PDGFR. Format: cell-based. Also noted: U1242 (PDGF-β receptor); host or cells: U1242 glioma cells (ELISA). The settings on record: read-out: PDGFR IC50. In short, it runs like this:
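Serum-starved cells treated with test compound for 2 hr at 37° C, then receptor phosphotyrosine measured by ELISA with anti-phosphotyrosine antibody and goat anti-rabbit IgG. Western blots used 7 min ligand stimulation at room temperature, vanadate-containing lysis and anti-phosphotyrosine immunodetection with ECL.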

PDGFR, sequence (P09619 33-1106): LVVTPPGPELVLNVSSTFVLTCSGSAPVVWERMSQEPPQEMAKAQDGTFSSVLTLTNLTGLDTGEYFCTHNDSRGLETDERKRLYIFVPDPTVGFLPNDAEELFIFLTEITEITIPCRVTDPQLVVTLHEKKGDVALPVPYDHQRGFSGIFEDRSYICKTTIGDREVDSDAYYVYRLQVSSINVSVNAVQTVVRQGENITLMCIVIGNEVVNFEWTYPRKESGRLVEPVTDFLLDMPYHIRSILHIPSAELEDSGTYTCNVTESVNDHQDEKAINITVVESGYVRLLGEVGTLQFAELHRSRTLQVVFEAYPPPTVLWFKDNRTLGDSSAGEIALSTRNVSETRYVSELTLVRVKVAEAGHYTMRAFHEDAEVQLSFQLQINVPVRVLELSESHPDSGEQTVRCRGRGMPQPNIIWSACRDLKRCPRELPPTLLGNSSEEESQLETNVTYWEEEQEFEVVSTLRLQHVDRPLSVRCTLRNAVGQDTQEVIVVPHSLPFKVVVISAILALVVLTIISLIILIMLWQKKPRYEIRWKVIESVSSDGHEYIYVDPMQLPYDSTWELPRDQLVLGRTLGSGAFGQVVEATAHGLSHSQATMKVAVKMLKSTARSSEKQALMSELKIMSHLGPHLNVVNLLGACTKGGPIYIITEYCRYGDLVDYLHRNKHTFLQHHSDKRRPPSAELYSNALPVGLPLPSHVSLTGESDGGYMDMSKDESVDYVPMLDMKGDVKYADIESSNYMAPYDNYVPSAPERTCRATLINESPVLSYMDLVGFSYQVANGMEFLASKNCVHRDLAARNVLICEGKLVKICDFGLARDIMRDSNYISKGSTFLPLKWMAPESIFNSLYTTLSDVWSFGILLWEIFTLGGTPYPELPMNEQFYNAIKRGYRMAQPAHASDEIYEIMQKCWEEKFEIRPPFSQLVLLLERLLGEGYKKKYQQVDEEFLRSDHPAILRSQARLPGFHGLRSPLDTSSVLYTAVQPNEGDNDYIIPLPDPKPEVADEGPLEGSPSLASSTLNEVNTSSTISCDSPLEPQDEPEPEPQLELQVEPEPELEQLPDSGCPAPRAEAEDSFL

With `Cc1oncc1C(=O)Nc1ccc(C(F)(F)F)cc1` [Compound A10, 5-methylisoxazole-4 carboxylic acid-(4-trifluromethyl)-anilide], the “HER2 phosphorylation” value in experiment [1] is recorded as “little if any effect on EGF-receptor or HER2 phosphorylation”. Besides, in experiment [2], the “EGF stimulated autophosphorylation of EGF-R” value was “little if any effect on the ability of EGF to stimulate autophosphorylation of EGF-R”.

A word on the IC50: it is the concentration needed to halve the response being measured. `N#CC(=Cc1c[nH]c2ccccc12)c1[nH]nc(N)c1C#N` [Compound D14]: in experiment [3], the IC50 amounted to 47 µM. In addition, in experiment [1], the “HER2 phosphorylation” value is “do not effect EGF or HER2 phosphorylation” and the concentration for half-maximal inhibition (IC50) was more than 50 µM.

For `Cc1cc2ncc(-c3ccccc3)nc2cc1C` [Compound G13], in experiment [1], the “HER2 phosphorylation” value is “do not effect EGF or HER2 phosphorylation” and the IC50 was more than 50 µM.

Regarding `COc1cc2ncc(-c3ccccc3)nc2cc1OC` [Compound G14], the “HER2 phosphorylation” value in experiment [1] is listed as “do not effect EGF or HER2 phosphorylation”.

As to `c1ccc(-c2cnc3cc4ccccc4cc3n2)cc1` [Compound G22], the IC50 in experiment [3] was 14 µM; in experiment [1] it was more than 50 µM.
